Reference: US20260262643A1, “HERBICIDAL BENZOXAZINES” (FMC CORPORATION, priority 2022, published 2026)

Legend:
[1] = system: barnyardgrass; assay: Test C preemergence; type: in vivo, Echinochloa crusgalli
Outline: (§1)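 Greenhouse herbicide screen, 10-day duration. Test chemicals in solvent/surfactant blend were sprayed onto soil at sowing (pre) or onto 2–10 cm seedlings at one to two leaves (post); injury scored visually against controls, 0 no effect to 100 complete control.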

[2] = system: blackgrass; assay: Test C preemergence; type: in vivo, Alopecurus myosuroides
Outline: as §1

[3] = system: corn; assay: Test C preemergence; type: in vivo, Zea mays
Outline: as §1

[4] = system: foxtail, giant; assay: Test C preemergence; type: in vivo, Setaria faberi
Outline: as §1

[5] = system: kochia; assay: Test C preemergence; type: in vivo, Bassia scoparia
Outline: as §1

[6] = system: oat, wild; assay: Test C preemergence; type: in vivo, Avena fatua
Outline: as §1

[7] = system: pigweed, palmer; assay: Test C preemergence; type: in vivo, Amaranthus palmeri
Outline: as §1

[8] = system: ragweed; assay: Test C preemergence; type: in vivo, Ambrosia artemisiifolia
Outline: as §1

[9] = system: ryegrass, Italian; assay: Test C preemergence; type: in vivo, Lolium multiflorum
Outline: as §1

[10] = system: soybean; assay: Test C preemergence; type: in vivo, Glycine max
Outline: as §1

[11] = system: wheat; assay: Test C preemergence; type: in vivo, Triticum aestivum
Outline: as §1

[12] = system: barnyardgrass; assay: Test C postemergence; type: in vivo, Echinochloa crusgalli; settings: 10 days, 0 to 100 scale (0 no effect, 100 complete control)
Outline: as §1

[13] = system: blackgrass; assay: Test C postemergence; type: in vivo, Alopecurus myosuroides; settings: 10 days, 0 to 100 scale (0 no effect, 100 complete control)
Outline: as §1

[14] = system: corn; assay: Test C postemergence; type: in vivo, Zea mays; settings: 10 days, 0 to 100 scale (0 no effect, 100 complete control)
Outline: as §1

[15] = system: foxtail, giant; assay: Test C postemergence; type: in vivo, Setaria faberi; settings: 10 days, 0 to 100 scale (0 no effect, 100 complete control)
Outline: as §1

[16] = system: kochia; assay: Test C postemergence; type: in vivo, Bassia scoparia; settings: 10 days, 0 to 100 scale (0 no effect, 100 complete control)
Outline: as §1

[17] = system: oat, wild; assay: Test C postemergence; type: in vivo, Avena fatua; settings: 10 days, 0 to 100 scale (0 no effect, 100 complete control)
Outline: as §1

[18] = system: pigweed, palmer; assay: Test C postemergence; type: in vivo, Amaranthus palmeri; settings: 10 days, 0 to 100 scale (0 no effect, 100 complete control)
Outline: as §1

[19] = system: ragweed; assay: Test C postemergence; type: in vivo, Ambrosia artemisiifolia; settings: 10 days, 0 to 100 scale (0 no effect, 100 complete control)
Outline: as §1

[20] = system: ryegrass, Italian; assay: Test C postemergence; type: in vivo, Lolium multiflorum; settings: 10 days, 0 to 100 scale (0 no effect, 100 complete control)
Outline: as §1

[21] = system: soybean; assay: Test C postemergence; type: in vivo, Glycine max; settings: 10 days, 0 to 100 scale (0 no effect, 100 complete control)
Outline: as §1

[22] = system: wheat; assay: Test C postemergence; type: in vivo, Triticum aestivum; settings: 10 days, 0 to 100 scale (0 no effect, 100 complete control)
Outline: as §1

[23] = system: galium; assay: Test C postemergence; type: in vivo, Galium aparine; settings: 10 days, 0 to 100 scale (0 no effect, 100 complete control)
Outline: as §1

[24] = system: horseweed; assay: Test C postemergence; type: in vivo, Erigeron canadensis; settings: 10 days, 0 to 100 scale (0 no effect, 100 complete control)
Outline: as §1

[25] = system: barnyardgrass; assay: Test D flooded paddy test; type: in vivo, Echinochloa crus-galli; settings: 250 g ai/ha, applied to paddy water, visual rating after 13 to 14 days, scale 0 to 100 (0 no effect, 100 complete control)
Outline: (§2)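 Seedlings reached the 2-leaf stage, then pots were flooded to 3 cm over the soil surface. Compound was applied into the water, depth was maintained, and plants stayed in the greenhouse 13 to 14 days before visual scoring (0–100) relative to controls.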

[26] = system: ducksalad; assay: Test D flooded paddy test; type: in vivo, Heteranthera limosa; settings: 250 g ai/ha, applied to paddy water, visual rating after 13 to 14 days, scale 0 to 100 (0 no effect, 100 complete control)
Outline: as §2

[27] = system: rice; assay: Test D flooded paddy test; type: in vivo, Oryza sativa; settings: 250 g ai/ha, applied to paddy water, visual rating after 13 to 14 days, scale 0 to 100 (0 no effect, 100 complete control)
Outline: as §2

[28] = system: sedge, umbrella; assay: Test D flooded paddy test; type: in vivo, Cyperus difformis; settings: 250 g ai/ha, applied to paddy water, visual rating after 13 to 14 days, scale 0 to 100 (0 no effect, 100 complete control)
Outline: as §2

[29] = 500 g ai/ha, preemergence, 0 to 100 scale (0 no effect, 100 complete control)
[30] = Preemergence, 125 g ai/ha, 0 to 100 scale, 0 no effect, 100 complete control

## Cc1cccc2c1OC(C(F)(F)F)CN2C(=O)c1ccnc(-n2cnc(C(C)(C)C)n2)c1 (stereo not shown) [Compound 319]
[1]; [29]
  Barnyardgrass plant response rating: 90
[1]; [30]
  Plant response rating, Barnyardgrass: 40
[2]; [29]
  Blackgrass plant response rating: 70
[2]; [30]
  Plant response rating, Blackgrass: 50
[3]; [29]
  Corn plant response rating: 20
[3]; [30]
  Plant response rating, Corn: 0
[4]; [29]
  Foxtail, Giant plant response rating: 100
[4]; [30]
  Plant response rating, Foxtail, Giant: 100
[5]; [29]
  Kochia plant response rating: 0
[5]; [30]
  Plant response rating, Kochia: 0
[6]; [29]
  Oat, Wild plant response rating: 40
[6]; [30]
  Plant response rating, Oat, Wild: 20
[7]; [29]
  Pigweed, Palmer plant response rating: 90
[7]; [30]
  Plant response rating, Pigweed, Palmer: 80
[8]; [29]
  Ragweed plant response rating: 0
[8]; [30]
  Plant response rating, Ragweed: 0
[9]; [29]
  Ryegrass, Italian plant response rating: 100
[9]; [30]
  Plant response rating, Ryegrass, Italian: 100
[10]; [29]
  Soybean plant response rating: 100
[10]; [30]
  Plant response rating, Soybean: 20
[11]; [29]
  Wheat plant response rating: 30
[11]; [30]
  Plant response rating, Wheat: 0
[12]; 500 g ai/ha, postemergence
  Plant response rating, Barnyardgrass: 60
[12]; Postemergence, 125 g ai/ha
  Plant response rating, Barnyardgrass: 10
[13]; 500 g ai/ha, postemergence
  Plant response rating, Blackgrass: 80
[13]; Postemergence, 125 g ai/ha
  Plant response rating, Blackgrass: 10
[14]; 500 g ai/ha, postemergence
  Plant response rating, Corn: 50
[14]; Postemergence, 125 g ai/ha
  Plant response rating, Corn: 20
[15]; 500 g ai/ha, postemergence
  Plant response rating, Foxtail, Giant: 80
[15]; Postemergence, 125 g ai/ha
  Plant response rating, Foxtail, Giant: 30
[16]; 500 g ai/ha, postemergence
  Plant response rating, Kochia: 90
[16]; Postemergence, 125 g ai/ha
  Plant response rating, Kochia: 40
[17]; 500 g ai/ha, postemergence
  Plant response rating, Oat, Wild: 30
[17]; Postemergence, 125 g ai/ha
  Plant response rating, Oat, Wild: 0
[18]; 500 g ai/ha, postemergence
  Plant response rating, Pigweed, Palmer: 80
[18]; Postemergence, 125 g ai/ha
  Plant response rating, Pigweed, Palmer: 30
[19]; 500 g ai/ha, postemergence
  Plant response rating, Ragweed: 70
[19]; Postemergence, 125 g ai/ha
  Plant response rating, Ragweed: 0
[20]; 500 g ai/ha, postemergence
  Plant response rating, Ryegrass, Italian: 50
[20]; Postemergence, 125 g ai/ha
  Plant response rating, Ryegrass, Italian: 30
[21]; 500 g ai/ha, postemergence
  Plant response rating, Soybean: 100
[21]; Postemergence, 125 g ai/ha
  Plant response rating, Soybean: 100
[22]; 500 g ai/ha, postemergence
  Plant response rating, Wheat: 10
[22]; Postemergence, 125 g ai/ha
  Plant response rating, Wheat: 10
[23]; 500 g ai/ha, postemergence
  Plant response rating, Galium: 70
[23]; Postemergence, 125 g ai/ha
  Plant response rating, Galium: 60
[24]; 500 g ai/ha, postemergence
  Plant response rating, Horseweed: 30
[24]; Postemergence, 125 g ai/ha
  Plant response rating, Horseweed: 0
[25]
  Plant response rating, Barnyardgrass (Flood): 0
[26]
  Plant response rating, Ducksalad (Flood): 0
[27]
  Plant response rating, Rice (Flood): 0
[28]
  Plant response rating, Sedge, Umbrella (Flood): 0
